# From the NIST ThermoML archive (doi:10.1016/j.jct.2004.12.008)
# ± gives the expanded uncertainty stated by the source.
# Test: xn = mol fraction of the nth substance listed
# Settings: 101 kPa, Liquid
smiles,measurement,setting,value
O=[N+]([O-])c1ccccc1 [nitrobenzene] + Cc1ccccc1,mass density,"293.15 K, x2 = 0",1202.95 ± 2.3 kg/m3
same,mass density,"293.15 K, x2 = 0.0629",1181.81 ± 2.1 kg/m3
same,mass density,"293.15 K, x2 = 0.1476",1153.37 ± 1.9 kg/m3
same,mass density,"293.15 K, x2 = 0.2138",1131.14 ± 1.8 kg/m3
same,mass density,"293.15 K, x2 = 0.2787",1109.35 ± 1.7 kg/m3
same,mass density,"293.15 K, x2 = 0.3587",1082.5 ± 1.5 kg/m3
same,mass density,"293.15 K, x2 = 0.4142",1063.89 ± 1.4 kg/m3
same,mass density,"293.15 K, x2 = 0.4831",1040.77 ± 1.3 kg/m3
same,mass density,"293.15 K, x2 = 0.5232",1027.31 ± 1.2 kg/m3
same,mass density,"293.15 K, x2 = 0.5771",1009.22 ± 1.1 kg/m3
same,mass density,"293.15 K, x2 = 0.6321",990.75 ± 1.2 kg/m3
same,mass density,"293.15 K, x2 = 0.6832",973.59 ± 1.4 kg/m3
same,mass density,"293.15 K, x2 = 0.7234",960.08 ± 1.5 kg/m3
same,mass density,"293.15 K, x2 = 0.8032",933.21 ± 1.8 kg/m3
same,mass density,"293.15 K, x2 = 0.8562",915.34 ± 2 kg/m3
same,mass density,"293.15 K, x2 = 0.9213",893.37 ± 2.2 kg/m3
same,mass density,"303.15 K, x2 = 0",1193.56 ± 2.2 kg/m3
same,mass density,"303.15 K, x2 = 0.0567",1174.37 ± 2.1 kg/m3
same,mass density,"303.15 K, x2 = 0.1332",1148.52 ± 1.9 kg/m3
same,mass density,"303.15 K, x2 = 0.185",1131.03 ± 1.8 kg/m3
same,mass density,"303.15 K, x2 = 0.2304",1115.73 ± 1.7 kg/m3
same,mass density,"303.15 K, x2 = 0.2798",1099.1 ± 1.6 kg/m3
same,mass density,"303.15 K, x2 = 0.3674",1069.64 ± 1.4 kg/m3
same,mass density,"303.15 K, x2 = 0.4026",1057.82 ± 1.4 kg/m3
same,mass density,"303.15 K, x2 = 0.4656",1036.69 ± 1.2 kg/m3
same,mass density,"303.15 K, x2 = 0.5072",1022.73 ± 1.2 kg/m3
same,mass density,"303.15 K, x2 = 0.5782",998.94 ± 1.1 kg/m3
same,mass density,"303.15 K, x2 = 0.6576",972.35 ± 1.3 kg/m3
same,mass density,"303.15 K, x2 = 0.7235",950.27 ± 1.6 kg/m3
same,mass density,"303.15 K, x2 = 0.7965",925.82 ± 1.8 kg/m3
same,mass density,"303.15 K, x2 = 0.8643",903.09 ± 2.1 kg/m3
same,mass density,"303.15 K, x2 = 0.9354",879.23 ± 2.3 kg/m3
same,mass density,"313.15 K, x2 = 0",1183.37 ± 2.1 kg/m3
same,mass density,"313.15 K, x2 = 0.0674",1160.46 ± 2 kg/m3
same,mass density,"313.15 K, x2 = 0.1534",1131.33 ± 1.8 kg/m3
same,mass density,"313.15 K, x2 = 0.1978",1116.33 ± 1.7 kg/m3
same,mass density,"313.15 K, x2 = 0.2576",1096.15 ± 1.6 kg/m3
same,mass density,"313.15 K, x2 = 0.3254",1073.34 ± 1.4 kg/m3
same,mass density,"313.15 K, x2 = 0.3789",1055.38 ± 1.3 kg/m3
same,mass density,"313.15 K, x2 = 0.4577",1028.98 ± 1.2 kg/m3
same,mass density,"313.15 K, x2 = 0.5067",1012.59 ± 1.1 kg/m3
same,mass density,"313.15 K, x2 = 0.5564",996 ± 1.1 kg/m3
same,mass density,"313.15 K, x2 = 0.6134",976.98 ± 1.2 kg/m3
same,mass density,"313.15 K, x2 = 0.674",956.78 ± 1.5 kg/m3
same,mass density,"313.15 K, x2 = 0.7435",933.64 ± 1.7 kg/m3
same,mass density,"313.15 K, x2 = 0.8134",910.37 ± 2 kg/m3
same,mass density,"313.15 K, x2 = 0.865",893.2 ± 2.1 kg/m3
same,mass density,"313.15 K, x2 = 0.9134",877.09 ± 2.3 kg/m3
same,mass density,"323.15 K, x2 = 0",1172.38 ± 2 kg/m3
same,mass density,"323.15 K, x2 = 0.0479",1156.07 ± 1.9 kg/m3
same,mass density,"323.15 K, x2 = 0.1289",1128.59 ± 1.7 kg/m3
same,mass density,"323.15 K, x2 = 0.1874",1108.81 ± 1.6 kg/m3
same,mass density,"323.15 K, x2 = 0.2671",1081.99 ± 1.4 kg/m3
same,mass density,"323.15 K, x2 = 0.3371",1058.51 ± 1.3 kg/m3
same,mass density,"323.15 K, x2 = 0.3961",1038.77 ± 1.2 kg/m3
same,mass density,"323.15 K, x2 = 0.4628",1016.54 ± 1.1 kg/m3
same,mass density,"323.15 K, x2 = 0.5342",992.79 ± 1.1 kg/m3
same,mass density,"323.15 K, x2 = 0.6056",969.11 ± 1.3 kg/m3
same,mass density,"323.15 K, x2 = 0.6854",942.7 ± 1.6 kg/m3
same,mass density,"323.15 K, x2 = 0.7245",929.78 ± 1.7 kg/m3
same,mass density,"323.15 K, x2 = 0.8056",903.01 ± 2 kg/m3
same,mass density,"323.15 K, x2 = 0.8543",886.94 ± 2.2 kg/m3
same,mass density,"323.15 K, x2 = 0.8965",873.03 ± 2.3 kg/m3
same,mass density,"323.15 K, x2 = 0.9423",857.93 ± 2.5 kg/m3
same,mass density,"333.15 K, x2 = 0",1160.59 ± 1.9 kg/m3
same,mass density,"333.15 K, x2 = 0.0575",1141.04 ± 1.8 kg/m3
same,mass density,"333.15 K, x2 = 0.1435",1111.97 ± 1.6 kg/m3
same,mass density,"333.15 K, x2 = 0.2345",1081.38 ± 1.4 kg/m3
same,mass density,"333.15 K, x2 = 0.2978",1060.21 ± 1.3 kg/m3
same,mass density,"333.15 K, x2 = 0.3534",1041.68 ± 1.2 kg/m3
same,mass density,"333.15 K, x2 = 0.4213",1019.15 ± 1.1 kg/m3
same,mass density,"333.15 K, x2 = 0.4896",996.55 ± 0.98 kg/m3
same,mass density,"333.15 K, x2 = 0.5634",972.23 ± 1.2 kg/m3
same,mass density,"333.15 K, x2 = 0.6233",952.54 ± 1.4 kg/m3
same,mass density,"333.15 K, x2 = 0.6856",932.12 ± 1.6 kg/m3
same,mass density,"333.15 K, x2 = 0.7435",913.17 ± 1.9 kg/m3
same,mass density,"333.15 K, x2 = 0.7947",896.44 ± 2 kg/m3
same,mass density,"333.15 K, x2 = 0.8634",874.02 ± 2.3 kg/m3
same,mass density,"333.15 K, x2 = 0.9067",859.9 ± 2.4 kg/m3
same,mass density,"333.15 K, x2 = 0.9424",848.26 ± 2.5 kg/m3
same,mass density,"343.15 K, x2 = 0",1148 ± 1.9 kg/m3
same,mass density,"343.15 K, x2 = 0.0523",1130.3 ± 1.7 kg/m3
same,mass density,"343.15 K, x2 = 0.1389",1101.17 ± 1.5 kg/m3
same,mass density,"343.15 K, x2 = 0.1924",1083.27 ± 1.4 kg/m3
same,mass density,"343.15 K, x2 = 0.2684",1057.97 ± 1.2 kg/m3
same,mass density,"343.15 K, x2 = 0.3289",1037.94 ± 1.1 kg/m3
same,mass density,"343.15 K, x2 = 0.3889",1018.15 ± 1 kg/m3
same,mass density,"343.15 K, x2 = 0.4521",997.4 ± 0.94 kg/m3
same,mass density,"343.15 K, x2 = 0.5123",977.7 ± 1.1 kg/m3
same,mass density,"343.15 K, x2 = 0.5931",951.38 ± 1.4 kg/m3
same,mass density,"343.15 K, x2 = 0.6532",931.86 ± 1.6 kg/m3
same,mass density,"343.15 K, x2 = 0.7234",909.14 ± 1.9 kg/m3
same,mass density,"343.15 K, x2 = 0.7923",886.89 ± 2.1 kg/m3
same,mass density,"343.15 K, x2 = 0.8534",867.19 ± 2.3 kg/m3
same,mass density,"343.15 K, x2 = 0.8811",858.27 ± 2.4 kg/m3
same,mass density,"343.15 K, x2 = 0.9421",838.64 ± 2.6 kg/m3
same,mass density,"353.15 K, x2 = 0",1134.61 ± 1.8 kg/m3
same,mass density,"353.15 K, x2 = 0.0442",1119.76 ± 1.6 kg/m3
same,mass density,"353.15 K, x2 = 0.1247",1092.87 ± 1.4 kg/m3
same,mass density,"353.15 K, x2 = 0.1842",1073.14 ± 1.3 kg/m3
same,mass density,"353.15 K, x2 = 0.2479",1052.11 ± 1.2 kg/m3
same,mass density,"353.15 K, x2 = 0.2943",1036.87 ± 1.1 kg/m3
same,mass density,"353.15 K, x2 = 0.3479",1019.33 ± 0.99 kg/m3
same,mass density,"353.15 K, x2 = 0.4109",998.83 ± 0.89 kg/m3
same,mass density,"353.15 K, x2 = 0.4671",980.61 ± 1.1 kg/m3
same,mass density,"353.15 K, x2 = 0.5239",962.27 ± 1.3 kg/m3
same,mass density,"353.15 K, x2 = 0.5791",944.5 ± 1.4 kg/m3
same,mass density,"353.15 K, x2 = 0.6321",927.5 ± 1.6 kg/m3
same,mass density,"353.15 K, x2 = 0.7913",876.69 ± 2.2 kg/m3
same,mass density,"353.15 K, x2 = 0.8423",860.48 ± 2.3 kg/m3
same,mass density,"353.15 K, x2 = 0.8742",850.36 ± 2.4 kg/m3
same,mass density,"353.15 K, x2 = 0.9311",832.32 ± 2.6 kg/m3
